Reference: ChEMBL document CHEMBL1201862, “PubChem BioAssay data set” (2004)
The source made the active and inactive calls.

Assays:
[1] = NIH-3T3 fibroblast cytotoxicity, dose response, cytotoxicity control, cell-based, fluorescence, Alamar Blue, secondary assay (AID 2327); type: functional;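 also: NIH-3T3 mouse fibroblasts cultured with fluconazole at 8 µg/mL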
[2] = C. albicans growth with fluconazole, confirmation, fluorescence, retest (AID 2467); type: functional, cell-based
[3] = target: Serine/threonine-protein phosphatase (Candida dubliniensis (strain CD36 / CBS 7987 / NCPF 3949 / NRRLY-17841) (Yeast), UniProt B9W6M3); assay: calcineurin pathway inhibitors in yeast reporter, dose response, S. cerevisiae, CDRE-lacZ, luminescence, secondary (AID 2388); type: functional, cell-based;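 also: yeast reporter cells carrying a calcineurin-responsive lacZ construct stimulated with calcium chloride; luminescent beta-galactosidase reporter signal in whole cells rather than isolated phosphatase activity; potency for inhibition where a drop in reporter signal means calcineurin blockade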
Chain of Serine/threonine-protein phosphatase (B9W6M3 whole entry): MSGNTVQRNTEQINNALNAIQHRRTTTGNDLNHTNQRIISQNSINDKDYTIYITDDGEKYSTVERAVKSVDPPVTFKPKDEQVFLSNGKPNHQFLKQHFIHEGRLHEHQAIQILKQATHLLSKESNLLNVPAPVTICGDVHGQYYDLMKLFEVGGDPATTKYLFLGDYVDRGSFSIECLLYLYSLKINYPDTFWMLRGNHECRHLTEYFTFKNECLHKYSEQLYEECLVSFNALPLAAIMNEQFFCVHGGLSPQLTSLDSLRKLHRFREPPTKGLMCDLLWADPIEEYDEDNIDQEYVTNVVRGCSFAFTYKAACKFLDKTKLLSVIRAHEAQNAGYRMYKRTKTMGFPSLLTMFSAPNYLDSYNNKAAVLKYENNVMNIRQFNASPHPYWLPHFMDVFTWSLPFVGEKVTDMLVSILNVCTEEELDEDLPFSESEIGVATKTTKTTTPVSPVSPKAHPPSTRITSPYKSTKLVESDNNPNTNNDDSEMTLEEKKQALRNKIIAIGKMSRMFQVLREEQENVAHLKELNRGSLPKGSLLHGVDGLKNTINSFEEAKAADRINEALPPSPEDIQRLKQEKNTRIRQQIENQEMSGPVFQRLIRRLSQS

[4] = target: ATP-dependent molecular chaperone HSP82 (Candida albicans (strain WO-1) (Yeast), UniProt C4YTQ8); assay: loss of DOC-induced GRE-beta-galactosidase reporter signal, dose response, Hsp90 inhibitor project, S. cerevisiae, luminescence (AID 2400); type: functional, cell-based;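 also: beta-galactosidase luminescence from glucocorticoid response element reporter as proxy for Hsp90 function; inhibitor potency where signal loss means Hsp90 inhibition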
Chain of ATP-dependent molecular chaperone HSP82 (C4YTQ8 whole entry): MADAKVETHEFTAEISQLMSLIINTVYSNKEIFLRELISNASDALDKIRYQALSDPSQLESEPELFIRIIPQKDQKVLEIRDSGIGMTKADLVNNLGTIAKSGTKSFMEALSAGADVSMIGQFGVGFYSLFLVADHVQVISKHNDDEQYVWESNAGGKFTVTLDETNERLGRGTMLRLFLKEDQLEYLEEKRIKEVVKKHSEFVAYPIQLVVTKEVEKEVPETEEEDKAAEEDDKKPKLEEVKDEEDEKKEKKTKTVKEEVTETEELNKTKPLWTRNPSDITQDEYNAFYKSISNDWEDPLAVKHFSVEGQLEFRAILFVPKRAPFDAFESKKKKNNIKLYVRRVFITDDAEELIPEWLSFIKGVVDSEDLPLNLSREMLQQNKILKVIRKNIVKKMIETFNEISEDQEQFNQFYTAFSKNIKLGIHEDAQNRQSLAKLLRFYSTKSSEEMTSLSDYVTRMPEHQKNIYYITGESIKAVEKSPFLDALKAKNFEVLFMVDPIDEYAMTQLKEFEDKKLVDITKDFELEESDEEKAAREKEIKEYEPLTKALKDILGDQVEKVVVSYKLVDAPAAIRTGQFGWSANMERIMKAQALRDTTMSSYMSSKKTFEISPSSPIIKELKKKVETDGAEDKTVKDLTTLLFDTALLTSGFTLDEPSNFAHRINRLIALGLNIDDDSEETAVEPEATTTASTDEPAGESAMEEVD

[5] = system: Streptococcus sp. 'group A'; assay: growth inhibition of control SK(-) GAS strain, dose response, counter-screen for streptokinase expression inhibitor project, luminescence, kanamycin, BacTiterGlo, confirmation (AID 1900); type: functional, organism-based
[6] = target: T1, Calpain-2 catalytic subunit (Sus scrofa, UniProt P43367); assay: pig calpain II inhibitor potency, dose response, biochemical, fluorogenic peptide substrate (AID 1420); type: functional
T1 sequence (P43367 whole entry): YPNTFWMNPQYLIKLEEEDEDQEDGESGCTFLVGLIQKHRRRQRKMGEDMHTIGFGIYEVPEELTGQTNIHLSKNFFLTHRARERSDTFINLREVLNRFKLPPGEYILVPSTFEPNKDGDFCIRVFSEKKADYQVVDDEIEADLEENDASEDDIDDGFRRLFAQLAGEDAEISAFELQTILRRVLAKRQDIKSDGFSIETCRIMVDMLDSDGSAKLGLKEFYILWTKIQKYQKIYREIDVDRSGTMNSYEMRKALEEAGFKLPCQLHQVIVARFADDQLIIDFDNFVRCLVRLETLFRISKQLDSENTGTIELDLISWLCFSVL

Streptococcus = assay: Group A Streptococcus viability loss, dose response, counter-screen for streptokinase expression inhibitor project, luminescence, BacTiterGlo (AID 1915); type: functional, organism-based;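 also: potency for reduction of bacterial viability or growth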
[7] = target: Heat shock protein HSP 90-alpha (Homo sapiens, UniProt P07900); type: functional, organism-based
[8] = target: T2, RNA-binding protein pos-1 (Caenorhabditis elegans, UniProt G5EF15); assay: inhibitors of POS-1/mex-3 RNA binding, dose response, biochemical, fluorescence polarization (AID 1964);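 also: purified POS-1 fused to maltose binding protein made in E. coli; potency of compounds blocking POS-1 binding to fluorescent RNA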
T2 sequence (G5EF15 whole entry): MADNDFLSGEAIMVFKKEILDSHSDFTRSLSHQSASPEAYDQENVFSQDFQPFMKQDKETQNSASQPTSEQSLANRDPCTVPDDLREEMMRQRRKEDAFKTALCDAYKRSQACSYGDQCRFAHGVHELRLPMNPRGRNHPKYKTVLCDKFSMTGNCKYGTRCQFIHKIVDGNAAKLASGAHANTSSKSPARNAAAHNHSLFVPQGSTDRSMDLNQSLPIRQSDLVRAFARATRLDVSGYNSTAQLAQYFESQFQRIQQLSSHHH

[9] = target: T3, Zinc finger protein mex-5 (Caenorhabditis elegans, UniProt Q9XUB2); assay: MEX-5/TCR-2 RNA interaction inhibitors, dose response, biochemical, C. elegans, fluorescence polarization (AID 1960)
T3 sequence (Q9XUB2 whole entry): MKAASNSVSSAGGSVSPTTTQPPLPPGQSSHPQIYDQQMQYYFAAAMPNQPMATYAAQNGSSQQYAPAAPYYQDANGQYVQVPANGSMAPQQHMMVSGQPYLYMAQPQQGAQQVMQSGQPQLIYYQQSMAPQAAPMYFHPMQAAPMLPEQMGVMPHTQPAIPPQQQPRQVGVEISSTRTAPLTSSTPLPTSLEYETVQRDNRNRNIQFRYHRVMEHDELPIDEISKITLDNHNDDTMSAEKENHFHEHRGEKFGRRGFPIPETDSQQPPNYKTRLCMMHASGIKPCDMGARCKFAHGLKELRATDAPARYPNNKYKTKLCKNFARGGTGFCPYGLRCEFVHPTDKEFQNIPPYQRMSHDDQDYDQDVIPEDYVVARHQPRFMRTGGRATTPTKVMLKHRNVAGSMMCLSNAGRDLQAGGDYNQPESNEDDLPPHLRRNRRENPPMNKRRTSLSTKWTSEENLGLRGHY

[10] = target: T4, Ubiquitin-conjugating enzyme E2 N (Homo sapiens, UniProt P61088); type: functional;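 also: Dose-response confirmation in a TR-FRET assay detecting UBC13-driven polyubiquitin chain formation, inhibition measured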
T4 sequence (P61088 whole entry): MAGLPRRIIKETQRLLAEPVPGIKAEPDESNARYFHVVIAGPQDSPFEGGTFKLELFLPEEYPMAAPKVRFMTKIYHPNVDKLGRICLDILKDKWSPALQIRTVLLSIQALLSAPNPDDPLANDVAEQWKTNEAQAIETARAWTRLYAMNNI

Beta-galactosidase = Beta-galactosidase (Escherichia coli, UniProt Q8VNN2); assay: beta-galactosidase enzyme inhibitors and activators, dose response, artefact control for CCR6 antagonist project, biochemical, E. coli enzyme, set 3 (AID 504712); type: functional
Chain of Beta-galactosidase (Q8VNN2 whole entry): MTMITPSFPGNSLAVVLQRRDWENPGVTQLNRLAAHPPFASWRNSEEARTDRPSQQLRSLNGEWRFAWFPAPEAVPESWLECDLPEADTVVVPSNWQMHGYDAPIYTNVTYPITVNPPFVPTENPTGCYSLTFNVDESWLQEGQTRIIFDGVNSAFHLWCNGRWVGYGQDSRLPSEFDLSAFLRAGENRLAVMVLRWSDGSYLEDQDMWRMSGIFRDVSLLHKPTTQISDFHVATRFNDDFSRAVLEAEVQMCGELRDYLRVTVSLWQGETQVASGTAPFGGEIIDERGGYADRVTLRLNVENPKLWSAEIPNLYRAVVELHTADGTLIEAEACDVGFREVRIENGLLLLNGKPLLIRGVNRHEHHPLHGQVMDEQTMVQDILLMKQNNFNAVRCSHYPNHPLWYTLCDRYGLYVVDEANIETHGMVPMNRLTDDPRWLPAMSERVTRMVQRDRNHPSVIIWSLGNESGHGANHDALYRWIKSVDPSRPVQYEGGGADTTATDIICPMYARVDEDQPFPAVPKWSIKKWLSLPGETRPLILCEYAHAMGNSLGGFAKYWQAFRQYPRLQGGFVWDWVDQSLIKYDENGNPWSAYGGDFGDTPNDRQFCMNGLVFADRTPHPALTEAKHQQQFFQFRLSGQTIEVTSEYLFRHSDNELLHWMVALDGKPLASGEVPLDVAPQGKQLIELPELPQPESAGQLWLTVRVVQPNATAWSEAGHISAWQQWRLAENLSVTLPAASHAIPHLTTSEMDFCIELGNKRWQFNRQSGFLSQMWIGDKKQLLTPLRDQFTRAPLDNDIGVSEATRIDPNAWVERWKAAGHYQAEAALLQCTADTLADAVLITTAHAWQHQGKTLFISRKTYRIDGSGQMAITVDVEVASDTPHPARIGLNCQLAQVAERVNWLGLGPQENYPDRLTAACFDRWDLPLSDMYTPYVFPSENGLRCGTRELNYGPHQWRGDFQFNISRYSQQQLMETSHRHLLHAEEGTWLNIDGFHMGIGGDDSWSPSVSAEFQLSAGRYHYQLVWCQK

[11] = target: T5, Short transient receptor potential channel 4 (Mus musculus, UniProt Q9QUQ5); assay: mouse TRPC4 channel activators, dose response, cell-based, HEK293 TRPC4/mu-opioid, Fluo-4 calcium (AID 434937); type: functional
T5 sequence (Q9QUQ5 whole entry): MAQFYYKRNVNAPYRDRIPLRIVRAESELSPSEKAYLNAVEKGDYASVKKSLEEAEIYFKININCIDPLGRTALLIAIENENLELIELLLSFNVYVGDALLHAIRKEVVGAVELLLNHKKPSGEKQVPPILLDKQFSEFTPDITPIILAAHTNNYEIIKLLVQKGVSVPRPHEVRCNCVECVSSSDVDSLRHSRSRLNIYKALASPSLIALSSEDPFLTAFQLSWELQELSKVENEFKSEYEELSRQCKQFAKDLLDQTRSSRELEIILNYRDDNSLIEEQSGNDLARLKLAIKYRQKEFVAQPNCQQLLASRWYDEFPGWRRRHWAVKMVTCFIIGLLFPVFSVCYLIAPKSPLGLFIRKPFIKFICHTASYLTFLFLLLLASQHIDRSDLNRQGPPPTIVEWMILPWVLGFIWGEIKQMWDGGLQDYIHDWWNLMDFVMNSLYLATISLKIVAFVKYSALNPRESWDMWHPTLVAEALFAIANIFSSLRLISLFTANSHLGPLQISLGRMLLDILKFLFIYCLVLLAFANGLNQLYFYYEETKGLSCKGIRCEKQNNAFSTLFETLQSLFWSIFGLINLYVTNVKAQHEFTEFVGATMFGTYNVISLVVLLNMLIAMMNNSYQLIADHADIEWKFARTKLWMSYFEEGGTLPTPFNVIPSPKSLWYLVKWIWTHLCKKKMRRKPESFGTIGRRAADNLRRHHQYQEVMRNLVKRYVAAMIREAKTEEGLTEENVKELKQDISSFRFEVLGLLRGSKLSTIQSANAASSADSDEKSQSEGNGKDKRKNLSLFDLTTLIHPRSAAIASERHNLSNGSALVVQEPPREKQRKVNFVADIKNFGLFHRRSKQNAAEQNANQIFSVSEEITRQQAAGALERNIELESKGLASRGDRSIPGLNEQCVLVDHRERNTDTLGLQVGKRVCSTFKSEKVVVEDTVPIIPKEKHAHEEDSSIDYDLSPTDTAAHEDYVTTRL

Apelin receptor = Apelin receptor (Homo sapiens, UniProt P35414); assay: APJ beta-arrestin recruitment antagonism, SAR follow-up, selectivity assay for CCR6 antagonist project, cell-based, luminescent, enzyme-fragment complementation (AID 588359); type: functional
Chain of Apelin receptor (P35414 whole entry, the tested form may be a part): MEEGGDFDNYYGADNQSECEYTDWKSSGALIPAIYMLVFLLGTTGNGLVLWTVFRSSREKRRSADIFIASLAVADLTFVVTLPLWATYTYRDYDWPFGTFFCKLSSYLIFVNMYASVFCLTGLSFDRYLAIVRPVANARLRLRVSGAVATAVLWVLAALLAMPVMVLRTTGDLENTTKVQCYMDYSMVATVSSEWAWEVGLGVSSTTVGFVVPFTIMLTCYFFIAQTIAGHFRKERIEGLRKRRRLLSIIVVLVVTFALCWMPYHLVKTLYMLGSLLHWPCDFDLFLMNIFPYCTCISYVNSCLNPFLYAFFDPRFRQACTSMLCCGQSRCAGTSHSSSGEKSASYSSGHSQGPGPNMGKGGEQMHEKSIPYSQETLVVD

[12] = target: Delta-type opioid receptor (Homo sapiens, UniProt P41143); assay: Counterscreen for agonists of heterodimerization of the mu 1 (OPRM1) and delta 1 (OPRD1) opioid receptors: Luminescence-based cell-based high throughput dose response assay to identify agonists of OPRD1 homodimerization. [Related pubchem assays (depositor defined):AID504326, AID504355, AID504692, AID504904, AID504905]; type: functional
Chain of Delta-type opioid receptor (P41143 whole entry): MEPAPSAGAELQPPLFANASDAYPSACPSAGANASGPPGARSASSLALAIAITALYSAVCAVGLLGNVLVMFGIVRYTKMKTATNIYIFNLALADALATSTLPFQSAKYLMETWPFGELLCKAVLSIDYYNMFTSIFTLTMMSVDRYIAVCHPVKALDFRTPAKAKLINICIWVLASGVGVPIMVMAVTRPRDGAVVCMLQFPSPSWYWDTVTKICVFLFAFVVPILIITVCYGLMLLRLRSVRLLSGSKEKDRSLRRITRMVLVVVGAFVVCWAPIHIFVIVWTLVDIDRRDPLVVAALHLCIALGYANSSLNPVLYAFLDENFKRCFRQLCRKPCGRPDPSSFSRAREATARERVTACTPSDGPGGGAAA

Mu-type opioid receptor = Mu-type opioid receptor (Homo sapiens, UniProt P35372); assay: Counterscreen for agonists of heterodimerization of the mu 1 (OPRM1) and delta 1 (OPRD1) opioid receptors: Luminescence-based cell-based high throughput dose response assay to identify agonists of OPRM1 homodimerization.; type: functional;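 also: U2OS cells expressing OPRM1 and beta-arrestin as split beta-galactosidase partners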
Chain of Mu-type opioid receptor (P35372 whole entry): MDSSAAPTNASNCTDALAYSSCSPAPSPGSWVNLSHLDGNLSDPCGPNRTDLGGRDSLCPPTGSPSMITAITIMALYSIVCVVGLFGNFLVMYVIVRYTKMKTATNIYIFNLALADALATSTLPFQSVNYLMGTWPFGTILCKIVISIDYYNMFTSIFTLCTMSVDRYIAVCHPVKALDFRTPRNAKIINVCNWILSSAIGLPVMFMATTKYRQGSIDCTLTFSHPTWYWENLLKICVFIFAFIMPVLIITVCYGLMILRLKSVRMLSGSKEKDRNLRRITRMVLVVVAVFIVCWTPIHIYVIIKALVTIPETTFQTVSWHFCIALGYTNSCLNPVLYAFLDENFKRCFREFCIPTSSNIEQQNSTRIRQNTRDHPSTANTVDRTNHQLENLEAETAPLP

[13] = target: 5-hydroxytryptamine receptor 5A (Homo sapiens, UniProt P47898); assay: Counterscreen for agonists of OPRM1-OPRD1 heterodimerization: luminescence-based cell-based high throughput dose response assay to identify agonists of 5-hydroxytryptamine (serotonin) 5A receptor (HTR5A). [Related pubchem assays (depositor defined):AID504326, AID504355, AID504692, AID504904, AID504905]; type: functional
Chain of 5-hydroxytryptamine receptor 5A (P47898 whole entry): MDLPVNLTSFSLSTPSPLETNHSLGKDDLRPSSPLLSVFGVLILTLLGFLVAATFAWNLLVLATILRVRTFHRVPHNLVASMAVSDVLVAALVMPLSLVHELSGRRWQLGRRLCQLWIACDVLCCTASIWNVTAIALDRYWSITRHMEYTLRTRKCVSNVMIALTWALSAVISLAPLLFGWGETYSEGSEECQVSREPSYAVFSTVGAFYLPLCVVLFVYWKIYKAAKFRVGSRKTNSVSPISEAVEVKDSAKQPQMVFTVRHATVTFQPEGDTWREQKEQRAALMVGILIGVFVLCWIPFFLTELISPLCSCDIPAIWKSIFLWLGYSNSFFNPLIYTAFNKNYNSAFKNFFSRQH

| EC50 [8] | EC50 [9] | IC50 [10] | IC50 (Beta-galactosidase) | EC50 [11] | IC50 (Apelin receptor) | EC50 [12] | EC50 (Mu-type opioid receptor) | EC50 [13] | SMILES | EC50 [1] | EC50 [2] | EC50 [3] | EC50 [4] | EC50 [5] | IC50 [6] | EC50 (Streptococcus) | AC50 [7] |
| --- | --- | --- | --- | --- | --- | --- | --- | --- | --- | --- | --- | --- | --- | --- | --- | --- | --- |
| – | – | – | – | – | – | – | – | – | Clc1ccc2c(c1)C(c1cccs1)=NNC(c1cccnc1)=N2 | > 150 µM (inactive) | 0.101 µM (active) | > 180 µM (inactive) | > 150 µM (inactive) | – | – | – | – |
| – | – | – | – | – | – | – | – | – | O=[N+]([O-])c1cc(Cl)c(O)c2ncccc12 | 15.5 µM (active) | 0.055 µM (active) | > 180 µM (inactive) | 1.48 µM (active) | 1.33 µM (active) | > 50 µM (not active) | 5.77 µM (active) | 1.86 µM (active) |
| 40.4 µM (active) | 40.6 µM (active) | > 20 µM (inactive) | > 66.6 µM (inactive) | 2.66 µM (active) | 19.3 µM (active) | > 92.5 µM (inactive) | > 92.5 µM (inactive) | > 92.5 µM (inactive) | COCCCn1c(N)c(-c2nc3ccccc3n2C)c2nc3ccccc3nc21 | – | – | – | – | – | – | – | – |
